For this data set, the system named is CCRIS mutagenicity, Ames/micronucleus/aberration tests. Description: CCRIS mutagenicity studies.
Setting [1] is: Test System: AMES SALMONELLA TYPHIMURIUM, Strain/Indicator: TA98, Metabolic Activation: NONE, Method: PREINCUBATION
[2] abbreviates: Test System: AMES SALMONELLA TYPHIMURIUM, Strain/Indicator: TA100, Metabolic Activation: NONE, Method: PREINCUBATION
Where [3] appears, read: Test System: AMES SALMONELLA TYPHIMURIUM, Strain/Indicator: TA1535, Metabolic Activation: NONE, Method: PREINCUBATION
[4] abbreviates: Test System: AMES SALMONELLA TYPHIMURIUM, Strain/Indicator: TA1537, Metabolic Activation: NONE, Method: PREINCUBATION

Activity calls are given as the source filed them. The rule behind the calls is not given here.

With `CC(=O)OCC(O)CO` (configuration not stated), the mutagenic call (End Point: IN VITRO CHROMOSOMAL ABERRATIONS, Test System: CHO CELLS, Metabolic Activation: NONE) was “inactive; negative”; the mutagenic call (End Point: IN VITRO CHROMOSOMAL ABERRATIONS, Test System: CHO CELLS, Metabolic Activation: RAT, LIVER, S-9, AROCLOR 1254) is “inactive; negative”; the mutagenic call (Test System: AMES SALMONELLA TYPHIMURIUM, Strain/Indicator: TA98, Metabolic Activation: HAMSTER, LIVER, S-9, AROCLOR 1254, Method: PREINCUBATION) is “inactive; negative”; the mutagenic call under setting [1] was “inactive; negative”; the mutagenic call (Test System: AMES SALMONELLA TYPHIMURIUM, Strain/Indicator: TA98, Metabolic Activation: RAT, LIVER, S-9, AROCLOR 1254, Method: PREINCUBATION) was “inactive; negative”; the mutagenic call (Test System: AMES SALMONELLA TYPHIMURIUM, Strain/Indicator: TA100, Metabolic Activation: HAMSTER, LIVER, S-9, AROCLOR 1254, Method: PREINCUBATION) is “inactive; negative”. Besides, the mutagenic call by setting is: under setting [2], “inactive; negative”; (Test System: AMES SALMONELLA TYPHIMURIUM, Strain/Indicator: TA100, Metabolic Activation: RAT, LIVER, S-9, AROCLOR 1254, Method: PREINCUBATION) “inactive; negative”; (Test System: AMES SALMONELLA TYPHIMURIUM, Strain/Indicator: TA1535, Metabolic Activation: HAMSTER, LIVER, S-9, AROCLOR 1254, Method: PREINCUBATION) “active; positive”; under setting [3], “active; positive”; (Test System: AMES SALMONELLA TYPHIMURIUM, Strain/Indicator: TA1535, Metabolic Activation: RAT, LIVER, S-9, AROCLOR 1254, Method: PREINCUBATION) “active; positive”; (Test System: AMES SALMONELLA TYPHIMURIUM, Strain/Indicator: TA1537, Metabolic Activation: HAMSTER, LIVER, S-9, AROCLOR 1254, Method: PREINCUBATION) “inactive; negative”. Also, the mutagenic call under setting [4] is “inactive; negative” and the mutagenic call (Test System: AMES SALMONELLA TYPHIMURIUM, Strain/Indicator: TA1537, Metabolic Activation: RAT, LIVER, S-9, AROCLOR 1254, Method: PREINCUBATION) is “inactive; negative”.
Consider `CNC(=O)ON=CC(C)(C)SC`, for which the mutagenic call by setting is: (End Point: IN VIVO CHROMOSOMAL ABERRATIONS, Test System: BONE MARROW CELLS, Species: RAT, Strain/Sex: MALE, Route: ORAL (GAVAGE)) “active; positive (structural and ploidy changes)”; (End Point: IN VIVO MICRONUCLEUS, Test System: BONE MARROW POLYCHROMATIC ERYTHROCYTES, Species: RAT, Strain/Sex: MALE, Route: ORAL (GAVAGE)) “active; positive”; (Test System: AMES SALMONELLA TYPHIMURIUM, Strain/Indicator: TA97, Metabolic Activation: HAMSTER, LIVER, S-9, AROCLOR 1254 (10 OR 30%), Method: PREINCUBATION) “inactive; negative”; (Test System: AMES SALMONELLA TYPHIMURIUM, Strain/Indicator: TA97, Metabolic Activation: NONE, Method: PREINCUBATION) “inactive; negative”; (Test System: AMES SALMONELLA TYPHIMURIUM, Strain/Indicator: TA97, Metabolic Activation: RAT, LIVER, S-9, AROCLOR 1254 (10 OR 30%), Method: PREINCUBATION) “inactive; negative”; (Test System: AMES SALMONELLA TYPHIMURIUM, Strain/Indicator: TA98, Metabolic Activation: HAMSTER, LIVER, S-9, AROCLOR 1254 (10 OR 30%), Method: PREINCUBATION) “inactive; negative”. The mutagenic call is “inactive; negative” under setting [1]; “inactive; negative” (Test System: AMES SALMONELLA TYPHIMURIUM, Strain/Indicator: TA98, Metabolic Activation: RAT, LIVER, S-9, AROCLOR 1254 (10 OR 30%), Method: PREINCUBATION); “inactive; negative” (Test System: AMES SALMONELLA TYPHIMURIUM, Strain/Indicator: TA100, Metabolic Activation: HAMSTER, LIVER, S-9, AROCLOR 1254 (10 OR 30%), Method: PREINCUBATION); “inactive; negative” under setting [2]; “inactive; negative” (Test System: AMES SALMONELLA TYPHIMURIUM, Strain/Indicator: TA100, Metabolic Activation: RAT, LIVER, S-9, AROCLOR 1254 (10 OR 30%), Method: PREINCUBATION); “inactive; negative” (Test System: AMES SALMONELLA TYPHIMURIUM, Strain/Indicator: TA1535, Metabolic Activation: HAMSTER, LIVER, S-9, AROCLOR 1254 (10 OR 30%), Method: PREINCUBATION). The mutagenic call is “inactive; negative” under setting [3]; “inactive; negative” (Test System: AMES SALMONELLA TYPHIMURIUM, Strain/Indicator: TA1535, Metabolic Activation: RAT, LIVER, S-9, AROCLOR 1254 (10 OR 30%), Method: PREINCUBATION); “inactive; negative” (Test System: AMES SALMONELLA TYPHIMURIUM, Strain/Indicator: TA1537, Metabolic Activation: HAMSTER, LIVER, S-9, AROCLOR 1254 (10 OR 30%), Method: PREINCUBATION); “inactive; negative” under setting [4]; “inactive; negative” (Test System: AMES SALMONELLA TYPHIMURIUM, Strain/Indicator: TA1537, Metabolic Activation: RAT, LIVER, S-9, AROCLOR 1254 (10 OR 30%), Method: PREINCUBATION); “inactive; negative” (Test System: E. COLI, Strain/Indicator: WP2 UVRA, Metabolic Activation: HAMSTER, LIVER, S-9, AROCLOR 1254, Method: STANDARD PLATE). Further, the mutagenic call (Test System: E. COLI, Strain/Indicator: WP2 UVRA, Metabolic Activation: HAMSTER, LIVER, S-9, Method: STANDARD PLATE) is “inactive; negative”; the mutagenic call (Test System: E. COLI, Strain/Indicator: WP2 UVRA, Metabolic Activation: MOUSE, LIVER, S-9, AROCLOR 1254, Method: STANDARD PLATE) is “inactive; negative”; the mutagenic call (Test System: E. COLI, Strain/Indicator: WP2 UVRA, Metabolic Activation: MOUSE, LIVER, S-9, Method: STANDARD PLATE) is “inactive; negative”; the mutagenic call (Test System: E. COLI, Strain/Indicator: WP2 UVRA, Metabolic Activation: NONE, Method: STANDARD PLATE) is “inactive; negative”; the mutagenic call (Test System: E. COLI, Strain/Indicator: WP2 UVRA, Metabolic Activation: RAT, LIVER, S-9, AROCLOR 1254, Method: STANDARD PLATE) was “inactive; negative”; the mutagenic call (Test System: E. COLI, Strain/Indicator: WP2 UVRA, Metabolic Activation: RAT, LIVER, S-9, Method: STANDARD PLATE) is “inactive; negative”. In addition, the mutagenic call by setting is: (Test System: MOUSE LYMPHOMA, Strain/Indicator: L5178Y (TK+/TK-), Metabolic Activation: NONE, Method: SUSPENSION/PLATE) “active; positive”; (Test System: MOUSE LYMPHOMA, Strain/Indicator: L5178Y (TK+/TK-), Metabolic Activation: RAT, LIVER, S-9, AROCLOR 1254, Method: SUSPENSION/PLATE) “active; positive”; (Test System: MOUSE LYMPHOMA, Strain/Indicator: L5178Y (TK+/TK-), Metabolic Activation: RAT, LIVER, S-9, Method: SUSPENSION/PLATE) “active; positive”.
Regarding `CS(=O)(=O)Nc1ccc(Nc2c3ccc(N=[N+]=[N-])cc3nc3ccc(N=[N+]=[N-])cc23)cc1`, the mutagenic call (Test System: AMES SALMONELLA TYPHIMURIUM, Strain/Indicator: TA1537, Metabolic Activation: NONE, Method: STANDARD PLATE) is “inactive; negative”.
